The test system of experiment [1] is epidermal hyperplasia induced by TPA. Put plainly: TPA-induced epidermal hyperplasia on dorsal skin of mice. The class given is in vivo, male BALB/c mice. The note with it: ED50; topical in acetone at 1 minute, 24 and 48 hours after TPA; epidermal thickness 72 hours after TPA. The procedure: After backs of male BALB/c mice were shaved, 20 micro 1 of TPA-acetone solution (50 μM) was applied to the dorsal skin surface in an area of ca. 1 cm^2. A volume of 20 micro 1 of test compound-acetone solution was applied to the same area a minute, 24 hours and 48 hours after TPA application (the treated group). In the non-treated group, acetone was applied instead of the test compound. In the control group, acetone was applied instead of TPA and the test compound. The mice were sacrificed, and the skin tissues treated with TPA or the test compound were excised 72 hours after TPA application. Then the tissues were fixed with 10% formalin and embedded in paraffin according to the conventional method. The vertical sections including the center of the TPA- or the test compound-treated area were prepared and they were stained by hematoxylin-eosin. The epidermal thickness was measured using an ocular microscope. The amount of the test compound required for achieving 50% inhibition against the mean epidermal thickness of the non-treated group (ED50) was calculated, wherein the mean epidermal thickness of the non-treated group was 100% and that of the control group was 0%.

For experiment [2], the system named is re-epithelialization of skin wound. Put plainly: Re-epithelialization in mouse skin wound model. The note with it: 50% inhibition of re-epithelialization; applied to 6-mm wound once a day. Format: in vivo, male BALB/c mice. How it is done:
Wound healing model was prepared according to the method described by Tsuboi, et al. [J. Dermatol., 19, 673-675 (1992)]. Briefly, after backs of male BALB/c mice were shaved, two full-thickness round wounds were prepared in parallel to anterior-posterior axis on the back of each mouse using a punch biopsy instrument (6-mm diameter). After the operation, a test compound dissolved or suspended in 0.1M phosphate-buffered saline containing 1.5% sodium carboxymethylcellulose (vehicle) was applied to each wound in a volume of 50 μl/wound. The wounds were left open. From the following day, the compound was applied to each wound once a day for 7 days (the treated group). In the control group, vehicle solution only was applied in the same manner. One day after the last application, mice were sacrificed and skin tissues around the anterior wound were excised. The tissues were fixed with 10% formalin and embedded in paraffin according to the conventional method. The sections were made perpendicularly to the anterior-posterior axis. Keratinocytes in the specimen were stained with an anti-keratin antibody. Measurements of wound size and epidermal migration were performed by using an image-analyzing software. Re-epithelialization was calculated as follows; [formula]
The amount of the test compound required for achieving 50% inhibition against the mean re-epithelialization of the control group (ED50) was calculated.

Experiment [3] concerns solubilizing enzyme of HB-EGF. Nature of the experiment: Inhibition of TPA-stimulated release of HB-EGF from HT-1080 transfectant expressing HB-EGF/alkaline phosphatase fusion protein. Format: cell-based, human. Conditions: HT-1080 HB-EGF-AP transfectant, TPA 60 nM for 60 min, AP activity in conditioned medium (OD405). How it is done: Human fibrosarcoma HT-1080 stable transfectant expressing fusion protein of HB-EGF and human placental alkaline phosphatase (AP) were used for following experiments.
The cultured transfectant was treated with Trypsin-EDTA solution, and suspended in Minimum Essential Medium (without phenol red; supplemented with 10% heat-inactivated fetal calf serum; MEM) at the concentration of 1×10^5 cells/ml. Each 0.2 ml of the cell suspension was dispensed into individual wells of 96 well microplate, and incubated overnight in the CO2 incubator (37° C.). After the incubation, the conditioned medium was removed, and the wells were washed once with 0.2 ml of phosphate buffered saline. The cells were treated with 0.1 ml of compound solution [compound solutions in dimethylsulfoxide (DMSO) were diluted 100 times with MEM] for 30 min at 37° C. Then the compound solutions were removed, and cells were treated with 0.2 ml of TPA solution (120 μM) of stock solution was diluted to 60 nM with MEM) containing same concentration of the compound for 60 min at 37° C. The cells treated same procedure without compound were used as control.
After these treatments, each 0.1 ml of conditioned medium was transferred to individual wells of new 96 well microplate and incubated at 65° C. for 10 min to inactivate endogenous alkaline phosphatase. One hundred microliter of substrate solution (1 mg/ml of p-nitrophenyl phosphate in 0.01% magnesium chloride/1 M diethanolamine) for AP was added to each well and incubated for 120 min at room temperature in the dark. The OD405 of each well was measured with microplate reader. The IC50 values of the compounds were calculated from the concentration-inhibition curves.

Each structure is given as a SMILES string. Read-outs that look alike come from different tables or passages of the source.

The term IC50 denotes the concentration needed to halve the response being measured. With `COc1ccc(S(=O)(=O)N2Cc3nccnc3CC2C(=O)NO)cc1` (single isomer, unassigned; (+)) [the compound(13), (+)-N-Hydroxy-6-(4-methoxybenzenesulfonyl)-5,6,7,8-tetrahydropyrido[3,4-b]pyrazine-7-carboxamide], the “Amount of test compound required for 50% suppression of epidermal hyperplasia” value in experiment [1] is given as 350 10^−6 g/cm^2. Further, the ED50 in experiment [2] is on record as 4.5 10^−6 g/0.3 cm^2. The concentration for half-maximal inhibition (IC50) in experiment [3] (read-out: IC50) amounted to 350 nM.
As to `COCCCOc1ccc(S(=O)(=O)N2Cc3nccnc3CC2C(=O)NO)cc1` (single isomer, unassigned; (+)) [the compound(14), (+)-N-Hydroxy-6-[4-(3-methoxypropoxy)benzenesulfonyl]-5,6,7,8-tetrahydropyrido[3,4-b]pyrazine-7-carboxamide], the “Amount of test compound required for 50% suppression of epidermal hyperplasia” value in experiment [1] is 300 10^−6 g/cm^2. Besides, the ED50 in experiment [2] is recorded as 9.8 10^−6 g/0.3 cm^2. In addition, the IC50 in experiment [3] (read-out: IC50) came out at 53 nM.
For `CCOc1ccc(S(=O)(=O)N2Cc3nccnc3CC2C(=O)NO)cc1` (single isomer, unassigned; (+)) [the compound(15), (+)-N-Hydroxy-6-(4-ethoxybenzenesulfonyl)-5,6,7,8-tetrahydropyrido[3,4-b]pyrazine-7-carboxamide] the same measures were 370 10^−6 g/cm^2, 5.2 10^−6 g/0.3 cm^2 and 310 nM.
As to `CCCOc1ccc(S(=O)(=O)N2Cc3nccnc3CC2C(=O)NO)cc1` (single isomer, unassigned; (+)) [the compound(16), (+)-N-Hydroxy-6-(4-propoxybenzenesulfonyl)-5,6,7,8-tetrahydropyrido[3,4-b]pyrazine-7-carboxamide], in experiment [2], the ED50 is listed as 11.6 10^−6 g/0.3 cm^2. Further, the IC50 in experiment [3] (read-out: IC50) came out at 1000 nM.
Take `COCCOc1ccc(S(=O)(=O)N2Cc3nccnc3CC2C(=O)NO)cc1` (single isomer, unassigned; (+)) [the compound(19), (+)-N-Hydroxy-6-[4-(2-methoxyethoxy)benzenesulfonyl]-5,6,7,8-tetrahydropyrido[3,4-b]pyrazine-7-carboxamide]: the “Amount of test compound required for 50% suppression of epidermal hyperplasia” value in experiment [1] is reported as 200 10^−6 g/cm^2. In experiment [2], the ED50 was 16.6 10^−6 g/0.3 cm^2. For the same compound, the IC50 in experiment [3] (read-out: IC50) stood at 360 nM.
For `O=C(NO)C1Cc2nccnc2CN1S(=O)(=O)c1ccc(Oc2ccccc2)cc1` (single isomer, unassigned; (+)) [the compound(20), (+)-N-Hydroxy-6-(4-phenoxybenzenesulfonyl)-5,6,7,8-tetrahydropyrido[3,4-b]pyrazine-7-carboxamide] the same measures were 27 10^−6 g/cm^2, 9.7 10^−6 g/0.3 cm^2 and 410 nM.
Regarding `CSCCCOc1ccc(S(=O)(=O)N2Cc3nccnc3CC2C(=O)NO)cc1` (single isomer, unassigned; (+)) [the compound(21), (+)-N-Hydroxy-6-[4-(3-methylthiopropoxy)benzenesulfonyl]-5,6,7,8-tetrahydropyrido[3,4-b]pyrazine-7-carboxamide], in experiment [1], the “Amount of test compound required for 50% suppression of epidermal hyperplasia” value is on record as 230 10^−6 g/cm^2. Moreover, the ED50 in experiment [2] is 11.0 10^−6 g/0.3 cm^2. Also, in experiment [3], the IC50 came to 100 nM.

Values taken from patent US20030229113A1, “Keratinocyte growth inhibitors and hydroxamic acid derivatives” (priority 2003, published 2003).
